The source of these data is patent US20210038559A1, “CANNABINOIDS AND DERIVATIVES FOR PROMOTING IMMUNOGENICITY OF TUMOR AND INFECTED CELLS” (priority 2018, published 2021).

Read-outs that look alike come from different tables or passages of the source.

In the assay the test system is MHC-I expression by COLO 205 cells. The assay is described as follows: cells. Type of assay: cell-based, human. Conditions: for fold induction at 35 µM: Homo sapiens, COLO 205, 48 h, read-out: Induction Fold. The procedure: A panel of synthetic cannabinoids (Cayman Chemical, #9002891) was tested for MHC class I-inducing capability in COLO 205 cells as described above. COLO 205 cells were treated with the compounds at a concentration of 35 μM and evaluated for cell surface MHC class I expression after 48 hours. Cells were harvested, stained with MHC-I mAb W6/32 (Thermo Fisher). MHC-I expression was determined by flow cytometry.

The mark [1] stands for this setting: MHC-I expression, COLO 205 cells, compounds at 35 μM, 48 hours, flow cytometry (W6/32).

Turning to `O=C(NC1C2CC3CC(C2)CC1C3)c1nn(CC2CCOCC2)c2ccccc12` (single isomer, unassigned) [Example 352, N-(adamantan-2-yl)-1-((tetrahydro-2H-pyran-4-yl)methyl)-1H-indazole-3-carboxamide], under setting [1], the fold induction at 35 µM was found to be 1.07. Consider `Cc1ccc(C(=O)c2cn(CCCCCCl)c3ccccc23)c2ccccc12` [Example 189, (1-(5-chloropentyl)-1H-indol-3-yl)(4-methylnaphthalen-1-yl)methanone], for which, under setting [1], the fold induction at 35 µM was 1.89. The same measure, in the same setting: for `CCCCCn1cc(C(=O)c2ccc(Cl)c3ccccc23)c2ccccc21` [Example 223, (4-chloro-1-naphthalenyl)(1-pentyl-1H-indol-3-yl)-methanone] the value was 1.76; for `CCCC(F)Cn1cc(C(=O)Nc2cccc3ccccc23)c2ccccc21` (centres unmarked) [Example 296, 1-(2-fluoropentyl)-N-(naphthalen-1-yl)-1H-indole-3-carboxamide], 1.43.

Take `O=C(NCc1ccccc1)c1cn(CCCCCF)c2ccccc12` [Example 306, 1-(5-fluoropentyl)-N-(phenylmethyl)-1H-indole-3-carboxamide]: under setting [1], the fold induction at 35 µM amounted to 1.38. Same read-out and setting: for `O=C(c1ccc2ccccc2c1)c1cn(CCCCCF)c2ccccc12` [Example 139, (1-(5-fluoropentyl)-1H-indol-3-yl)(naphthalen-2-yl)methanone] the value was 2.19; for `NC(=O)[C@H](Cc1ccccc1)NC(=O)c1nn(Cc2ccc(F)cc2)c2ccccc12` [Example 213, N-[(1S)-2-amino-2-oxo-1-(phenylmethyl)ethyl]-1-[(4-fluorophenyl)methyl]-1H-indazole-3-carboxamide], 1.81. For the compound `CCCCCn1nc(C(=O)Nc2cccc3cccnc23)c2ccccc21` [Example 232, 1-pentyl-N-(quinolin-8-yl)-1H-indazole-3-carboxamide], under setting [1], the fold induction at 35 µM turned out to be 1.71. Still for that read-out and setting: for `CCCCCn1cc(C(=O)Cc2ccccc2)c2ccccc21` [Example 80, 1-(1-pentyl-1H-indol-3-yl)-2-phenyl-ethanone] the value was 2.57; for `O=C(Oc1cccc2ccncc12)c1cn(CCCCCF)c2ccccc12` [Example 16, isoquinolin-8-yl 1-(5-fluoropentyl)-1H-indole-3-carboxylate], 4.19. On to `CC(C)[C@H](NC(=O)c1nn(Cc2ccccc2F)c2ccccc12)C(N)=O` [Example 143, N-[(1S)-1-(aminocarbonyl)-2-methylpropyl]-1-[(2-fluorophenyl)methyl]-1H-indazole-3-carboxamide], for which, under setting [1], the fold induction at 35 µM was determined as 2.19.

For `CCCCCn1c(C)c(C(=O)c2cccc3ccccc23)c2ccccc21` [Example 98, (2-methyl-1-pentyl-1H-indol-3-yl)-1-naphthalenyl-methanone], under setting [1], the “Induction Fold” value is listed as 2.43 Fold. As for `O=C(c1ccc(I)cc1)c1cn(CCCCCF)c2ccccc12` [Example 283, (1-(5-fluoropentyl)-1H-indol-3-yl)(4-iodophenyl)methanone], the fold induction at 35 µM under setting [1] worked out at 1.46.

For `CC(F)CCCn1cc(C(=O)c2cccc3ccccc23)c2ccccc21` (centres unmarked) [Example 316, (1-(4-fluoropentyl)-1H-indol-3-yl)(naphthalen-1-yl)methanone], the fold induction at 35 µM under setting [1] is 1.32. The same measure, in the same setting: for `Cc1ccc(C(=O)c2cn(CCCCCF)c3ccccc23)c2ccccc12` [Example 155, [1-(5-fluoropentyl)-1H-indol-3-yl](4-methyl-1-naphthalenyl)-methanone] the value was 2.08. The same measure, in the same setting: for `CC1(C)C(C(=O)c2nn(CCCCCF)c3ccccc23)C1(C)C` [Example 185, (1-(5-fluoropentyl)-1H-indazol-3-yl)(2,2,3,3-tetramethylcyclopropyl)methanone] the value was 1.9; for `CCCCn1cc(C(=O)c2ccc(OC)c3ccccc23)c2ccccc21` [Example 370, (1-butyl-1H-indol-3-yl)(4-methoxy-1-naphthalenyl)-methanone], 0.82.

Consider `CCC(F)CCn1cc(C(=O)c2cccc3ccccc23)c2ccccc21` (centres unmarked) [Example 128, (1-(3-fluoropentyl)-1H-indol-3-yl)(naphthalen-1-yl)methanone], for which the fold induction at 35 µM under setting [1] worked out at 2.28.

On to `CCCCCOc1ccc(C(=O)c2cccc3ccccc23)c2ccccc12` [Example 152, 1-naphthalenyl[4-(pentoxy)-1-naphthalenyl]-methanone], for which the “Induction Fold” value was determined as 2.12 Fold. For `CC(C)Cn1cc(C(=O)c2cccc3ccccc23)c2ccccc21` [Example 41, (1-isobutyl-1H-indol-3-yl)(naphthalen-1-yl)methanone], the fold induction at 35 µM under setting [1] was 3.11.

For `COc1cccc2c(C(=O)N[C@@H]3C(C)(C)[C@@H]4CC[C@@]3(C)C4)c(C)n(CCN3CCOCC3)c12` [Example 295, 7-methoxy-2-methyl-1-[2-(4-morpholinyl)ethyl]-N-[(1S,2S,4R)-1,3,3-trimethylbicyclo[2.2.1]hept-2-yl]-1H-indole-3-carboxamide], the fold induction at 35 µM under setting [1] is 1.43. Still for that read-out and setting: for `CCCCCn1cc(C(=O)Nc2ccc3ccccc3c2)c2ccccc21` [Example 349, N-2-naphthalenyl-1-pentyl-1H-indole-3-carboxamide] the value was 1.1; for `CCCCCCCn1cc(C(=O)C2C(C)(C)C2(C)C)c2ccccc21` [Example 118, (1-heptyl-1H-indol-3-yl)(2,2,3,3-tetramethylcyclopropyl)-methanone], 2.33. Turning to `COC(=O)[C@@H](NC(=O)c1cn(CC2CCCCC2)c2ccccc12)C(C)C` [Example 229, methyl (1-(cyclohexylmethyl)-1H-indole-3-carbonyl)-1-valinate], the “Induction Fold” value under setting [1] was 1.72 Fold.

Consider `O=C(Oc1cnc2ccccc2c1)c1cn(CCCCCF)c2ccccc12` [Example 136, quinolin-3-yl 1-(5-fluoropentyl)-1H-indole-3-carboxylate], for which, under setting [1], the fold induction at 35 µM amounted to 2.22. Still for that read-out and setting: for `CCCCCn1cc(C(=O)C2C(C)(C)C2(C)C)c2ccccc21` [Example 94, (1-pentyl-1H-indol-3-yl)(2,2,3,3-tetramethylcyclopropyl)-methanone] the value was 2.45; for `CCCCCn1cc(C(=O)Oc2ccc3cnccc3c2)c2ccccc21` [Example 53, isoquinolin-6-yl 1-pentyl-1H-indole-3-carboxylate], 2.97. Same read-out and setting: for `COC(=O)[C@@H](NC(=O)c1ccc2c(c1)c1ccccc1n2CC1CCCCC1)C(C)(C)C` [Example 239, methyl (S)-2-(9-(cyclohexylmethyl)-9H-carbazole-3-carboxamido)-3,3-dimethylbutanoate] the value was 1.69; for `CCCC(F)Cn1cc(C(=O)c2ccc(C)c3ccccc23)c2ccccc21` (centres unmarked) [Example 359, (1-(2-fluoropentyl)-1H-indol-3-yl)(4-methylnaphthalen-1-yl)methanone], 1. Same read-out and setting: for `CC(C)(NC(=O)c1nn(CCCCCF)c2ccccc12)c1ccccc1` [Example 228, 1-(5-fluoropentyl)-N-(1-methyl-1-phenylethyl)-1H-indazole-3-carboxamide] the value was 1.72. In the case of `CCCCn1c(C)c(C(=O)c2cccc3ccccc23)c2ccccc21` [Example 122, (1-butyl-2-methyl-1H-indol-3-yl)-1-naphthalenyl-methanone], the “Induction Fold” value is recorded as 2.31 Fold. Regarding `O=C(Oc1cccc2cccnc12)c1nn(Cc2ccc(F)cc2)c2ccccc12` [Example 276, quinolin-8-yl 1-(4-fluorobenzyl)-1H-indazole-3-carboxylate], the fold induction at 35 µM under setting [1] was determined as 1.51.

For `CCCCCn1nc(C(=O)N[C@H](C(=O)OC)C(C)C)c2ccccc21` [Example 183, N-[(1-pentyl-1H-indazol-3-yl)carbonyl]-1-valine, methyl ester], under setting [1], the “Induction Fold” value worked out at 1.91 Fold. `CCCCCn1nc(C(=O)Oc2cccc3cccnc23)c2ccccc21` [Example 258, 1-pentyl-1H-indazole-3-carboxylic acid, 8-quinolinyl ester]: the fold induction at 35 µM under setting [1] was 1.59. Still for that read-out and setting: for `CCC(C(N)=O)N(C)C(=O)c1nn(Cc2ccc(F)cc2)c2ccccc12` (single isomer, unassigned) [Example 135, N-(1-amino-1-oxobutan-2-yl)-1-(4-fluorobenzyl)-N-methyl-1H-indazole-3-carboxamide] the value was 2.23.

In the case of `COc1ccc(C(=O)c2cn(CCN3CCOCC3)c3ccccc23)c2ccccc12` [Example 21, (4-methoxy-1-naphthalenyl)[1-[2-(4-morpholinyl)ethyl]-1H-indol-3-yl]-methanone], the fold induction at 35 µM under setting [1] was 3.85.

In the case of `Cc1ccc(C(=O)c2cn(CCN3CCOCC3)c3ccccc23)c2ccccc12` [Example 203, (4-methyl-1-naphthalenyl)[1-[2-(4-morpholinyl)ethyl]-1H-indol-3-yl]-methanone], the fold induction at 35 µM under setting [1] amounted to 1.87. Still for that read-out and setting: for `CCCCCn1c(C)c(C(=O)c2ccc(C)c3ccccc23)c2ccccc21` [Example 326, (4-methyl-1-naphthalenyl)(2-methyl-1-pentyl-1H-indol-3-yl)-methanone] the value was 1.25; for `CCCC(F)Cn1nc(C(=O)NC(C(N)=O)C(C)C)c2ccccc21` (centres unmarked) [Example 317, N-(1-amino-3-methyl-1-oxobutan-2-yl)-1-(2-fluoropentyl)-1H-indazole-3-carboxamide], 1.31.

Turning to `CCCCCn1cc(C(=O)Oc2cccc3ccccc23)c2ccccc21` [Example 249, naphthalen-1-yl 1-pentyl-1H-indole-3-carboxylate], the fold induction at 35 µM under setting [1] is 1.63. The same measure, in the same setting: for `CCCCCc1cc(OC)c2cc(Cc3ccccc3OC)c(=O)oc2c1` [Example 200, 5-methoxy-3-[(2-methoxyphenyl)methyl]-7-pentyl-2H-1-benzopyran-2-one] the value was 1.88.
